# Results taken from patent US9663536B2, “Inhibitors of human immunodeficiency virus replication” (priority 2013, dated 2017).
# System: recombinant NL-Rluc virus
# Test: Inhibition of HIV replication (NL-Rluc virus in MT-2 cells, luciferase readout)
# Assay type: cell-based
# Details: Human immunodeficiency virus 1, MT2, 120 h
compound,measurement,value
"Cc1nc2cc3nn2c(c1[C@H](OC(C)(C)C)C(=O)O)N1CCC(C)(CC1)OC/C=C/Cc1ccccc1Cc1cnc-3s1 (single isomer, unassigned) [Example 1]",EC50,2 nM
"Cc1nc2cc3nn2c(c1[C@H](OC(C)(C)C)C(=O)O)N1CCC(C)(CC1)OC/C=C\CCc1ccccc1Cc1cnc-3s1 (single isomer, unassigned) [Example 2]",EC50,2 nM
"Cc1nc2cc3nn2c(c1[C@H](OC(C)(C)C)C(=O)O)N1CCC(C)(/C=C/CCCCc2cc(F)ccc2Cc2cnc-3s2)CC1 (single isomer, unassigned) [Example 15]",EC50,13 nM
"Cc1nc2cc3nn2c(c1[C@H](OC(C)(C)C)C(=O)O)N1CCC(C)(/C=C/CCCc2cc(F)ccc2Cc2cnc-3s2)CC1 (single isomer, unassigned) [Example 16]",EC50,12 nM
"Cc1nc2cc3nn2c(c1[C@H](OC(C)(C)C)C(=O)O)N1CCC(C)(CC/C=C/CCc2cc(F)ccc2Cc2cnc-3s2)CC1 (single isomer, unassigned) [Example 17]",EC50,18 nM
"Cc1nc2cc3nn2c(c1[C@H](OC(C)(C)C)C(=O)O)N1CCC(C)(C/C=C/CCc2cc(F)ccc2Cc2cnc-3s2)CC1 (single isomer, unassigned) [Example 18]",EC50,11 nM
"Cc1nc2cc3nn2c(c1[C@H](OC(C)(C)C)C(=O)O)N1CCC(C)(CC/C=C/CCc2ccc(F)cc2Cc2cnc-3s2)CC1 (single isomer, unassigned) [Example 21]",EC50,13 nM
"Cc1nc2cc3nn2c(c1[C@H](OC(C)(C)C)C(=O)O)N1CCC(C)(CC/C=C\CCc2ccc(F)cc2Cc2cnc-3s2)CC1 (single isomer, unassigned) [Example 22]",EC50,35 nM
"Cc1nc2cc3nn2c(c1[C@H](OC(C)(C)C)C(=O)O)N1CCC(C)(C/C=C/CCc2ccc(F)cc2Cc2cnc-3s2)CC1 (single isomer, unassigned) [Example 23]",EC50,7 nM
"Cc1nc2cc3nn2c(c1[C@H](OC(C)(C)C)C(=O)O)N1CCC(C)(CC1)OC/C=C/CCc1cccc(c1)Cc1cnc-3s1 [Example 3, (2S)-2-(tert-Butoxy)-2-[(22E)-4,26-dimethyl-25-oxa-32-thia-1,5,7,8,11-pentaazahexacyclo[24.2.2.1^6,9.1^10,13.1^15,19.0^2,7]tritriaconta-2,4,6(33),8,10,12,15(31),16,18,22-decaen-3-yl]acetic acid]",EC50,3 nM
"Cc1nc2cc3nn2c(c1[C@H](OC(C)(C)C)C(=O)O)N1CCC(C)(CC1)OCCCCCc1cccc(c1)Cc1cnc-3s1 [Example 4, (2S)-2-(tert-Butoxy)-2-{4,26-dimethyl-25-oxa-32-thia-1,5,7,8,11-pentaazahexacyclo[24.2.2.1^6,9.1^10,13.1^15,19.0^2,7]tritriaconta-2,4,6(33),8,10,12,15(31),16,18-nonaen-3-yl}acetic acid]",EC50,22 nM
"Cc1nc2cc3nn2c(c1[C@H](OC(C)(C)C)C(=O)O)N1CCC(C)(CC1)OCCCCOc1ccccc1Cc1cnc-3s1 [Example 5, (2S)-2-(tert-Butoxy)-2-{4,27-dimethyl-21,26-dioxa-32-thia-1,5,7,8,11-pentaazahexacyclo[25.2.2.1^6,9.1^10,13.0^2,7.0^15,20]tritriaconta-2,4,6(33),8,10,12,15(20),16,18-nonaen-3-yl}Acetic Acid]",EC50,6 nM
"Cc1nc2cc3nn2c(c1[C@H](OC(C)(C)C)C(=O)O)N1CCC(C)(CC1)OCCCCOc1ccccc1Cc1cnc-3o1 [Example 6, (2S)-2-(tert-Butoxy)-2-{4,27-dimethyl-21,26,32-trioxa-1,5,7,8,11-pentaazahexacyclo[25.2.2.1^6,9.1^10,13.0^2,7.0^15,20]tritriaconta-2,4,6(33),8,10,12,15(20),16,18-nonaen-3-yl}acetic acid]",EC50,4 nM
"Cc1nc2cc3nn2c(c1[C@H](OC(C)(C)C)C(=O)O)N1CCC(C)(CC1)OCC=CCOc1ccccc1Cc1cnc-3s1 [Example 7, (2S)-2-(tert-Butoxy)-2-[4,27-dimethyl-21,26-dioxa-32-thia-1,5,7,8,11-pentaazahexacyclo[25.2.2.1^6,9.1^10,13.0^2,7.0^15,20]tritriaconta-2,4,6(33),8,10,12,15(20),16,18,23-decaen-3-yl]acetic acid]",EC50,6 nM
